Results reported in PMC7590151, “Chiral Cyclobutane-Containing Cell-Penetrating Peptides as Selective Vectors for Anti-Leishmania Drug Delivery Systems” (International Journal of Molecular Sciences, 2020).

Test system: Leishmania donovani promastigotes
Assay: Viability of Leishmania donovani promastigotes (MTT reduction)
Assay type: cell-based
Conditions: L. donovani promastigotes 20 × 10^6 cells/mL, 4 h, 26 °C, full range of concentrations assayed (comparison 15 vs 16 at 5, 10 and 25 μM)
Description: The cellular viability in the presence of the peptides was assessed by the MTT reduction at both stages of the parasite after 4 h incubation (Figure 5).
The experiments were carried out with Leishmania donovani promastigotes (MHOM/SI/00/1S-2D strain) and Leishmania pifanoi amastigotes (MHOM/VE/60/Ltrod strain), respectively. Promastigotes were grown at 26 °C in RPMI medium supplemented with 10% of FCS, 2 mM L-glutamine, 20 U/mL unicillin 20 plus 48 µg/mL gentamicin.
The viability assays were carried out using the reduction of MTT as described. The parasites were aliquoted into 96-microwell plates at a final concentration of 20 × 10^6 cells/mL in HBSS supplemented with 10 mM D-glucose. The peptides were incubated for 4 h at the corresponding peptide concentration at 26 °C or 32 °C for promastigotes and axenic amastigotes, respectively. […] The resulting formazan was solubilized with […] (1% final concentration) and read at 595 nm in a Bio-Rad 640 microplate reader.
(a) L. pifanoi axenic amastigotes. […] Axenic Leishmania parasites (20 × 10^6 cells/mL) were incubated with the peptides, and MTT reduction measured immediately after 4 h incubation. […]
Figure 8 Viability of Leishmania donovani promastigotes treated with Dox-conjugates 15 and 16 along with Dox and Dox-TAT. Parasites were incubated with the respective reagents (20 × 10^6 cells/mL, 4 h, 26 °C), and MTT reduction measured afterwards. […]

Question: COc1cccc2c1C(=O)c1c(O)c3c(c(O)c1C2=O)C[C@@](O)(C(=O)CO)C[C@@H]3O[C@H]1C[C@H](N)[C@H](O)[C@H](C)O1 [doxorubicin] was tested. Which “Toxicity towards promastigotes (in words)” value did it give?
Answer: did not show any toxicity
